In ChEMBL document CHEMBL4507269, “Data for DCP probe BAY-386” (2021):

How the values were obtained:
[1] = target: Serine/threonine-protein kinase B-raf (Homo sapiens) (UniProt P15056); conditions: Compound concentration 1000.0 nM
[2] = target: RAF proto-oncogene serine/threonine-protein kinase (Homo sapiens) (UniProt P04049); conditions: Compound concentration 1000.0 nM
[3] = target: Motilin receptor (Homo sapiens) (UniProt O43193); assay: motilin (h) Eurofins-Cerep Cellular and Nuclear Receptor Functional Assays; conditions: Compound concentration 10.0 uM
Sequence of Motilin receptor (Homo sapiens) (O43193 whole entry): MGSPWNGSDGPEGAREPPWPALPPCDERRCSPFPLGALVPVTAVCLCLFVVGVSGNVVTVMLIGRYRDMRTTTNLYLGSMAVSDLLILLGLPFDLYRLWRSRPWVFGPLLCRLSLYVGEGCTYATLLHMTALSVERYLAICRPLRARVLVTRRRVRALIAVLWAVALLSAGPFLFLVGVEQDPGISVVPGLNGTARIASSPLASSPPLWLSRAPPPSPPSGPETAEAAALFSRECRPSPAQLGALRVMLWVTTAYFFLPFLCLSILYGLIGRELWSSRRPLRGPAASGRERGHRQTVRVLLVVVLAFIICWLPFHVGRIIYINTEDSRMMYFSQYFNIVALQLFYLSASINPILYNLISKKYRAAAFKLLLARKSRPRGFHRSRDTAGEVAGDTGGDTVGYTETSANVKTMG

[4] = target: Ephrin type-A receptor 2 (Homo sapiens) (UniProt P29317); conditions: Compound concentration 1000.0 nM
[5] = target: Dual specificity tyrosine-phosphorylation-regulated kinase 2 (Homo sapiens) (UniProt Q92630); conditions: Compound concentration 1000.0 nM
[6] = target: Non-receptor tyrosine-protein kinase TYK2 (Homo sapiens) (UniProt P29597); conditions: Compound concentration 1000.0 nM
Sequence of Non-receptor tyrosine-protein kinase TYK2 (Homo sapiens) (P29597 whole entry): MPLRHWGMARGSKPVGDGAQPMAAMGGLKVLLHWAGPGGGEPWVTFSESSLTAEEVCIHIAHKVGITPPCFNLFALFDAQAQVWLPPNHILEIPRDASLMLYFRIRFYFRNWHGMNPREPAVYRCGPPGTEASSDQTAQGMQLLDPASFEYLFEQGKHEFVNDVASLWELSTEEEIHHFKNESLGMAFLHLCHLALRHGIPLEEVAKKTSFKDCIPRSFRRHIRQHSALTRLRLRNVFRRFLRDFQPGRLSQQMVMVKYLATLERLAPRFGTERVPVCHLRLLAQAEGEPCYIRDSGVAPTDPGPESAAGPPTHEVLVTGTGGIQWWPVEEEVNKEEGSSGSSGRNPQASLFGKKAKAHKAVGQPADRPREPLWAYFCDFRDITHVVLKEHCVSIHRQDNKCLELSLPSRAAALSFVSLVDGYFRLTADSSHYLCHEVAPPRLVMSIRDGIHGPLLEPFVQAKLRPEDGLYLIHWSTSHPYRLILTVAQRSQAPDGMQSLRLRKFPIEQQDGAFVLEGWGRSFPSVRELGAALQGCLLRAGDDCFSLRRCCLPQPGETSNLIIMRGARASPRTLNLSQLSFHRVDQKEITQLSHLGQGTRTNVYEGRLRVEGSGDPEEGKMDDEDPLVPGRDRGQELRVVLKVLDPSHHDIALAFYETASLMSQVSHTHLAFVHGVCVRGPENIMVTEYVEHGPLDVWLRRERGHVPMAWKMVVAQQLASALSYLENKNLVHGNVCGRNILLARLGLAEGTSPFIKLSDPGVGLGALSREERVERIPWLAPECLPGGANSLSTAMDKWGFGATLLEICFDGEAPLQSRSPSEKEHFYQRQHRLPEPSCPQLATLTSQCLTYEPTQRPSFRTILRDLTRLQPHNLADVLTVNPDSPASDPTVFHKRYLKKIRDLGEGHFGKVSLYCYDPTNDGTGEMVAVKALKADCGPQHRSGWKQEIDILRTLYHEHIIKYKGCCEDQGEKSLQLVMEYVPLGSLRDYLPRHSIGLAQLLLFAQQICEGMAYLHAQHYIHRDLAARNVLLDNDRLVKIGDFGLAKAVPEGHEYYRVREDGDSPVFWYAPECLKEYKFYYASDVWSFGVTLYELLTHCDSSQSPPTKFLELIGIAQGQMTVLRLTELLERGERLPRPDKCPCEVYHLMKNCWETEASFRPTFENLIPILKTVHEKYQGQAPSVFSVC

[7] = target: Ribosomal protein S6 kinase alpha-4 (Homo sapiens) (UniProt O75676); conditions: Compound concentration 1000.0 nM
Sequence of Ribosomal protein S6 kinase alpha-4 (Homo sapiens) (O75676 whole entry, looked up): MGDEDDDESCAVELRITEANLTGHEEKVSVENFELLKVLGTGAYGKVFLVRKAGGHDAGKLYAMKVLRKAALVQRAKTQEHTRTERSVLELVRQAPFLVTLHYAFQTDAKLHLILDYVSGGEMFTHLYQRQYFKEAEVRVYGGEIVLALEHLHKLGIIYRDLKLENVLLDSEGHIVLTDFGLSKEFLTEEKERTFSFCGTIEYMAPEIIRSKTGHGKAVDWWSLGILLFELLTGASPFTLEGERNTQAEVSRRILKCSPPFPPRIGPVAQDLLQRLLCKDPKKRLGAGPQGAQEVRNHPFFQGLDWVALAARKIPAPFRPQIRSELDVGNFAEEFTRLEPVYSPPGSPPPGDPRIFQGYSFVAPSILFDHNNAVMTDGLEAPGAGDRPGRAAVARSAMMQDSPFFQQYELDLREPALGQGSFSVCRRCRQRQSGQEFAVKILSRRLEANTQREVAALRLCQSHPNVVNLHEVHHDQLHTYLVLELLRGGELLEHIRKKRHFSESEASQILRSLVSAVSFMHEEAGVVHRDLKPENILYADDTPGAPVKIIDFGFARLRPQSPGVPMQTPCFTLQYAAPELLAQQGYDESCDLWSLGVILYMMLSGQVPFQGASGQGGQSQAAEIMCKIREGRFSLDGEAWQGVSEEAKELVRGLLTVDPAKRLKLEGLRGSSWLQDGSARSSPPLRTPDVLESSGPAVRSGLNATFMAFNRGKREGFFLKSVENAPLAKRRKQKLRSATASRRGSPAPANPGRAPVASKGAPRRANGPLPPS

[8] = system: Tyrosine-protein kinase ABL1 (Homo sapiens), P00519 [F317I]; conditions: Compound concentration 1000.0 nM
[9] = target: Cyclin-dependent kinase 4 (Homo sapiens) (UniProt P11802); conditions: Compound concentration 1000.0 nM
Sequence of Cyclin-dependent kinase 4 (Homo sapiens) (P11802 whole entry): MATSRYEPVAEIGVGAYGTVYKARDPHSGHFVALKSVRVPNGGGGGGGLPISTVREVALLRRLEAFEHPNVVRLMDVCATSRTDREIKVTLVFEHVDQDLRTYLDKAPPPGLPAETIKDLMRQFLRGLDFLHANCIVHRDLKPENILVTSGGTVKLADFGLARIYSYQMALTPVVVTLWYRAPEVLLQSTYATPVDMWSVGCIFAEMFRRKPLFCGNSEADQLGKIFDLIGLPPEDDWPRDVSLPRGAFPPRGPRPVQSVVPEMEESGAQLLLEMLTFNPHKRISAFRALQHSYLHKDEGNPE

[10] = target: Phosphatidylinositol 4-phosphate 5-kinase type-1 alpha (Homo sapiens) (UniProt Q99755); conditions: Compound concentration 1000.0 nM
[11] = target: cAMP-dependent protein kinase catalytic subunit alpha (Homo sapiens) (UniProt P17612); conditions: Compound concentration 1000.0 nM
[12] = system: Phosphatidylinositol 4,5-bisphosphate 3-kinase catalytic subunit alpha isoform (Homo sapiens), P42336 [Q546K]; conditions: Compound concentration 1000.0 nM
[13] = target: Wee1-like protein kinase (Homo sapiens) (UniProt P30291); conditions: Compound concentration 1000.0 nM
[14] = target: Myotonin-protein kinase (Homo sapiens) (UniProt Q09013); conditions: Compound concentration 1000.0 nM
[15] = target: Dual specificity mitogen-activated protein kinase kinase 4 (Homo sapiens) (UniProt P45985); conditions: Compound concentration 1000.0 nM
[16] = target: Serine/threonine-protein kinase Nek4 (Homo sapiens) (UniProt P51957); conditions: Compound concentration 1000.0 nM
Sequence of Serine/threonine-protein kinase Nek4 (Homo sapiens) (P51957 whole entry, looked up): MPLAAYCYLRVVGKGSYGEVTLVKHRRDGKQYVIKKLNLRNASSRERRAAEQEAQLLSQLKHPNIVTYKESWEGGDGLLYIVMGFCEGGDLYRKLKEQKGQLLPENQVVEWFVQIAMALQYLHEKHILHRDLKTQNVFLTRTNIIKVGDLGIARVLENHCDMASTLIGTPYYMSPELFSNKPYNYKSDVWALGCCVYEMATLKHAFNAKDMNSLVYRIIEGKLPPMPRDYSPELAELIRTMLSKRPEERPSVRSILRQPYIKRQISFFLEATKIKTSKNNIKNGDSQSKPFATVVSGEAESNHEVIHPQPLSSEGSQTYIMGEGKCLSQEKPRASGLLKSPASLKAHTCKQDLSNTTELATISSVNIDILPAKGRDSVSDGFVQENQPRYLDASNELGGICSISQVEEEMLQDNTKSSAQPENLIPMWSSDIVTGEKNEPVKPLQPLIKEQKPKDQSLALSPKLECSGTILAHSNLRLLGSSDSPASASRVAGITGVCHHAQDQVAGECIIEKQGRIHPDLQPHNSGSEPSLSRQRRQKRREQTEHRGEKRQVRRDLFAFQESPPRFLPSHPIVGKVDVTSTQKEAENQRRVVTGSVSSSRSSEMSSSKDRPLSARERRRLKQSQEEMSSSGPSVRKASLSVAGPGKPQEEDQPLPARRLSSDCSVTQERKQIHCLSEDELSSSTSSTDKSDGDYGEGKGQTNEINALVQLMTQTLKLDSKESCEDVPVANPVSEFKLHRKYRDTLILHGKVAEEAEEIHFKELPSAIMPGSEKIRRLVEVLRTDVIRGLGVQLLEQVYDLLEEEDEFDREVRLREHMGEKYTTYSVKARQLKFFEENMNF

[17] = target: 5'-AMP-activated protein kinase catalytic subunit alpha-1 (Homo sapiens) (UniProt Q13131); conditions: Compound concentration 1000.0 nM
[18] = target: Serine/threonine-protein kinase MRCK gamma (Homo sapiens) (UniProt Q6DT37); conditions: Compound concentration 1000.0 nM
[19] = target: Dual specificity tyrosine-phosphorylation-regulated kinase 1B (Homo sapiens) (UniProt Q9Y463); conditions: Compound concentration 1000.0 nM
[20] = target: Serine/threonine-protein kinase PAK 3 (Homo sapiens) (UniProt O75914); conditions: Compound concentration 1000.0 nM
[21] = target: Muscarinic acetylcholine receptor M3 (Homo sapiens) (UniProt P20309); conditions: Compound concentration 10.0 uM
Sequence of Muscarinic acetylcholine receptor M3 (Homo sapiens) (P20309 whole entry, looked up): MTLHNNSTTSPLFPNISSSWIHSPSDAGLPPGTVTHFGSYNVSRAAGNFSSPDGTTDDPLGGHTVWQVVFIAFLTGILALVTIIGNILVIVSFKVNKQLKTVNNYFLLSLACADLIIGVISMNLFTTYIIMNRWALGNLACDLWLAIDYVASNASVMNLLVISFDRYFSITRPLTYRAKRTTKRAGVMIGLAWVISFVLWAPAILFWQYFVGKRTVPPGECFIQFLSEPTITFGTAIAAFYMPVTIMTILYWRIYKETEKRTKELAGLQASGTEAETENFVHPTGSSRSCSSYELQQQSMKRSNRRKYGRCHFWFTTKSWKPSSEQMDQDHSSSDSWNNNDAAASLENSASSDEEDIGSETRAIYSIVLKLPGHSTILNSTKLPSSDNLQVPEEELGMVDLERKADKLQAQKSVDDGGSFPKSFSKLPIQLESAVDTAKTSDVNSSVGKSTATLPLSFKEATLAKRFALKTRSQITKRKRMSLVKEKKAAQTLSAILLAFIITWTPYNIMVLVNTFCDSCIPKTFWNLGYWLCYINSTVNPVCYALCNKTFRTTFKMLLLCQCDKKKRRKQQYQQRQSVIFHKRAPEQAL

[22] = target: Non-receptor tyrosine-protein kinase TYK2 (Homo sapiens) (UniProt P29597); conditions: Compound concentration 1000.0 nM; remark: listed apart in the source
[23] = target: Non-receptor tyrosine-protein kinase TNK1 (Homo sapiens) (UniProt Q13470); conditions: Compound concentration 1000.0 nM
[24] = target: Serine/threonine-protein kinase DCLK1 (Homo sapiens) (UniProt O15075); conditions: Compound concentration 1000.0 nM
[25] = system: Tyrosine-protein kinase ABL1 (Homo sapiens), P00519 [H396P]; conditions: Compound concentration 1000.0 nM
[26] = target: 5-hydroxytryptamine receptor 2B (Homo sapiens) (UniProt P41595); assay: 5-HT2B (h) Eurofins-Cerep Cellular and Nuclear Receptor Functional Assays; conditions: Compound concentration 10.0 uM
Sequence of 5-hydroxytryptamine receptor 2B (Homo sapiens) (P41595 whole entry, canonical isoform): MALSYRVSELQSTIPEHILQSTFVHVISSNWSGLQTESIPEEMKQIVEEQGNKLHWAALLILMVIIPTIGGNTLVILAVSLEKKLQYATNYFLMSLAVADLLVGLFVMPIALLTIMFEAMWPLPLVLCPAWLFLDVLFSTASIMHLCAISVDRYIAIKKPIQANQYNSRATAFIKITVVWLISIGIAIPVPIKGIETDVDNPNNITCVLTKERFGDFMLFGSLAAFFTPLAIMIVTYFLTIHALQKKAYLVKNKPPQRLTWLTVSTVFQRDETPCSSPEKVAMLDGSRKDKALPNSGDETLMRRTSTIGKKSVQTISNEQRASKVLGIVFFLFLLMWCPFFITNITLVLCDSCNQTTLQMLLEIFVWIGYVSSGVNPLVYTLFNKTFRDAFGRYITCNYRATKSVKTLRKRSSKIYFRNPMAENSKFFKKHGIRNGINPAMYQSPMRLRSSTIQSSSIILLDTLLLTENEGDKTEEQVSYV

[27] = target: Phosphatidylinositol 4,5-bisphosphate 3-kinase catalytic subunit beta isoform (Homo sapiens) (UniProt P42338); conditions: Compound concentration 1000.0 nM
[28] = target: Serine/threonine-protein kinase ICK (Homo sapiens) (UniProt Q9UPZ9); conditions: Compound concentration 1000.0 nM
[29] = target: Tyrosine-protein kinase TXK (Homo sapiens) (UniProt P42681); conditions: Compound concentration 1000.0 nM
[30] = target: Sodium-dependent dopamine transporter (Homo sapiens) (UniProt Q01959); conditions: Compound concentration 10.0 uM
[31] = target: Serine/threonine-protein kinase RIO1 (Homo sapiens) (UniProt Q9BRS2); conditions: Compound concentration 1000.0 nM
[32] = target: Ribosomal protein S6 kinase alpha-6 (Homo sapiens) (UniProt Q9UK32); conditions: Compound concentration 1000.0 nM
[33] = target: Serine/threonine-protein kinase 32B (Homo sapiens) (UniProt Q9NY57); conditions: Compound concentration 1000.0 nM
Sequence of Serine/threonine-protein kinase 32B (Homo sapiens) (Q9NY57 whole entry): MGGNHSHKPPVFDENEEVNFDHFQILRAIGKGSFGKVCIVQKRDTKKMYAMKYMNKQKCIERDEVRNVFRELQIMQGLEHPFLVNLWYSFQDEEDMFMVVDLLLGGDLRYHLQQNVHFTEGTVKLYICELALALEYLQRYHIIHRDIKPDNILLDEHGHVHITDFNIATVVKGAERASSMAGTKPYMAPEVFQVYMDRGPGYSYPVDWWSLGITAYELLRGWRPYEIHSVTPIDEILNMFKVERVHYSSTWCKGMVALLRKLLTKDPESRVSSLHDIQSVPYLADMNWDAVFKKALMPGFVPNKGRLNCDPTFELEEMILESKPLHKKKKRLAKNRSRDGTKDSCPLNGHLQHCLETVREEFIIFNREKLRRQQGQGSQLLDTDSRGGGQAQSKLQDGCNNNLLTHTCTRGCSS

[34] = target: Uncharacterized serine/threonine-protein kinase SBK3 (Homo sapiens) (UniProt P0C264); conditions: Compound concentration 1000.0 nM
[35] = target: Rhodopsin kinase GRK7 (Homo sapiens) (UniProt Q8WTQ7); conditions: Compound concentration 1000.0 nM
[36] = target: Misshapen-like kinase 1 (Homo sapiens) (UniProt Q8N4C8); conditions: Compound concentration 1000.0 nM
[37] = target: Serine/threonine-protein kinase MAK (Homo sapiens) (UniProt P20794); conditions: Compound concentration 1000.0 nM
[38] = target: Cyclin-dependent kinase 4 (Homo sapiens) (UniProt P11802); conditions: Compound concentration 1000.0 nM; remark: listed apart in the source
[39] = system: Fibroblast growth factor receptor 3 (Homo sapiens), P22607 [G697C]; conditions: Compound concentration 1000.0 nM
[40] = target: Cytoplasmic tyrosine-protein kinase BMX (Homo sapiens) (UniProt P51813); conditions: Compound concentration 1000.0 nM
[41] = target: Sigma intracellular receptor 2 (Homo sapiens, UniProt Q5BJF2); conditions: Compound concentration 10.0 uM
[42] = system: Receptor-type tyrosine-protein kinase FLT3 (Homo sapiens), P36888 [UNDEFINED MUTATION]; conditions: Compound concentration 1000.0 nM
[43] = target: Aurora kinase A (Homo sapiens) (UniProt O14965); conditions: Compound concentration 1000.0 nM
[44] = target: 5'-AMP-activated protein kinase catalytic subunit alpha-2 (Homo sapiens) (UniProt P54646); conditions: Compound concentration 1000.0 nM

Cc1noc([C@H]2C[C@@H](c3ccc(C(F)(F)F)cc3)CN(C(=O)N3CCS(=O)(=O)C3)C2)n1 [BAY-448]
residual activity [1]: 97% | residual activity [2]: 100% | % Inhibition of Control Agonist Response (Mean n=2) [3]: 0.9% | % of Control Agonist Response (Mean n=2) [3]: 6.9% | residual activity [4]: 100% | residual activity [5]: 100% | residual activity [6]: 100% | residual activity [7]: 100% | residual activity [8]: 100% | residual activity [9]: 100% | residual activity [10]: 88% | residual activity [11]: 100% | residual activity [12]: 100% | residual activity [13]: 100% | residual activity [14]: 100% | residual activity [15]: 100% | residual activity [16]: 82% | residual activity [17]: 100% | residual activity [18]: 100% | residual activity [19]: 76% | residual activity [20]: 100% | inhibition [21]: -1.45% | residual activity [22]: 100% | residual activity [23]: 100% | residual activity [24]: 75% | residual activity [25]: 100% | % Inhibition of Control Agonist Response (Mean n=2) [26]: -3% | % of Control Agonist Response (Mean n=2) [26]: 0.4% | residual activity [27]: 99% | residual activity [28]: 62% | residual activity [29]: 92% | inhibition [30]: 5.46% | residual activity [31]: 100% | residual activity [32]: 98% | residual activity [33]: 68% | residual activity [34]: 84% | residual activity [35]: 100% | residual activity [36]: 100% | residual activity [37]: 100% | residual activity [38]: 100% | residual activity [39]: 84% | residual activity [40]: 100% | inhibition [41]: 42.4% | residual activity [42]: 89% | residual activity [43]: 85% | residual activity [44]: 66%

O=C(N1CCS(=O)(=O)CC1)N1C[C@H](c2ccc(OC(F)(F)F)cc2)C[C@H](c2nc(C3CC3)no2)C1 [BAY-386]
residual activity [1]: 100% | residual activity [2]: 100% | % Inhibition of Control Agonist Response (Mean n=2) [3]: 29.2% | % of Control Agonist Response (Mean n=2) [3]: 16.7% | residual activity [4]: 100% | residual activity [5]: 100% | residual activity [6]: 53% | residual activity [7]: 82% | residual activity [8]: 100% | residual activity [9]: 88% | residual activity [10]: 100% | residual activity [11]: 100% | residual activity [12]: 83% | residual activity [13]: 100% | residual activity [14]: 100% | residual activity [15]: 95% | residual activity [16]: 100% | residual activity [17]: 100% | residual activity [18]: 100% | residual activity [19]: 93% | residual activity [20]: 100% | inhibition [21]: -2.11% | residual activity [22]: 94% | residual activity [23]: 100% | residual activity [24]: 100% | residual activity [25]: 100% | % Inhibition of Control Agonist Response (Mean n=2) [26]: 7% | % of Control Agonist Response (Mean n=2) [26]: 1.6% | residual activity [27]: 66% | residual activity [28]: 100% | residual activity [29]: 100% | inhibition [30]: 0.01% | residual activity [31]: 100% | residual activity [32]: 76% | residual activity [33]: 100% | residual activity [34]: 98% | residual activity [35]: 100% | residual activity [36]: 99% | residual activity [37]: 100% | residual activity [38]: 18% | residual activity [39]: 100% | residual activity [40]: 100% | inhibition [41]: 67.7% | residual activity [42]: 100% | residual activity [43]: 100% | residual activity [44]: 100%
